# Reference: US8084466B2, “Bicyclic heteroaryl-substituted imidazoles as modulators of the histamine H4 receptor” (Janssen Pharmaceutica NV, priority 2007, dated 2011)
# Molecular target: T1, human histamine H4 receptor (Homo sapiens, UniProt Q9H3N8)
# T1 construct: expressed in transfected cells; host or cells: SK-N-MC cells or COS7 cells, transient transfection with pH4R; cell membranes
# Assay: Binding Assay on Recombinant Human Histamine H4 Receptor
# Conditions: competition binding with 3H-histamine (5 nM; KD 5 nM), membranes of SK-N-MC or COS7 cells expressing human H4 receptor; average of results; > = highest value tested
# Description: Biological Methods: Binding Assay on Recombinant Human Histamine H4 Receptor
# SK-N-MC cells or COS7 cells were transiently transfected with pH4R and grown in 150 cm^2 tissue culture dishes. Cells were washed with saline solution, scraped with a cell scraper and collected by centrifugation (1000 rpm, 5 min). Cell membranes were prepared by homogenization of the cell pellet in 20 mM Tris-HCl with a polytron tissue homogenizer for 10 sec at high speed. Homogenate was centrifuged at 1000 rpm for 5 min at 4° C. The supernatant was then collected and centrifuged at 20,000×g for 25 min at 4° C. The final pellet was resuspended in 50 mM Tris-HCl. Cell membranes were incubated with ^3H-histamine (5-70 nM) in the presence or absence of excess histamine (10,000 nM). Incubation occurred at room temperature for […]. Membranes were harvested by rapid filtration over Whatman GF/C filters and washed 4 times with ice-cold 50 mM Tris HCl. Filters were then dried, mixed with scintillant and counted for radioactivity. SK-N-MC or COS7 cells expressing human histamine H4 receptor were used to measure the affinity of binding of other compounds and their ability to displace ^3H-ligand binding by incubating the above-described reaction in the presence of various concentrations of inhibitor or compound to be tested. For competition binding studies using ^3H-histamine, Ki values were calculated, based on an experimentally determined KD value of 5 nM and a ligand concentration of 5 nM, according to Y.-C.
row,Compound,Ki
1,"Cc1c(F)ccc2[nH]c(-c3cccc4c3c(Cl)cn4CCCCC3CCN(C)CC3)nc12 [Example 31, 2-{3-Chloro-1-[4-(1-methyl-piperidin-4-yl)-butyl]-1H-indol-4-yl}-5-fluoro-4-methyl-1H-benzoimidazole]",118 nM
2,"Cc1c(C)n(CCCC2CCN(C)CC2)c2ccc(-c3nc4c(C)c(F)ccc4[nH]3)cc12 [Example 15, 2-{2,3-Dimethyl-1-[3-(1-methyl-piperidin-4-yl)-propyl]-1H-indol-5-yl}-5-fluoro-4-methyl-1H-benzoimidazole]",110 nM
3,"Cc1c(-c2nc3c(C)c(F)ccc3[nH]2)ccc2c1CCN2CCCC1CCN(C)CC1 [Example 1, 5-Fluoro-4-methyl-2-{4-methyl-1-[3-(1-methyl-pieridin-4-yl)-proyl]-2,3-dihydro-1H-indol-5-yl}-1H-benzoimidazole]",29 nM
4,"Clc1cccc2[nH]c(-c3cccc4c3ccn4CCCCC3CCNCC3)nc12 [Example 36, 4-Chloro-2-[1-(4-piperidin-4-yl-butyl)-1H-indol-4-yl]-1H-benzoimidazole]",2330 nM
5,"Cc1cccc2[nH]c(-c3ccc4c(ccn4CCCC4CCN(C)CC4)c3)nc12 [Example 12, 4-Methyl-2-{1-[3-(1-methyl-piperidin-4-yl)-propyl]-1H-indol-5-yl}-1H-benzoimidazole]",120 nM
6,"Cc1c(F)ccc2[nH]c(-c3ccc4ncn(CCCC5CCN(C)CC5)c4c3)nc12 [Example 41, 5-Fluoro-4-methyl-3′-[3-(1-methyl-piperidin-4-yl)-propyl]-1H,3′H-[2,5′]bibenzoimidazolyl]",397 nM
7,"CN1CCC(CCCCn2ccc3c(-c4nc5cc(C(C)(C)C)ccc5[nH]4)cccc32)CC1 [Example 24, 5-tert-Butyl-2-{1-[4-(1-methyl-piperidin-4-yl)-butyl]-1H-indol-4-yl}-1H-benzoimidazole]",40 nM
8,"CN1CCC(CCCCn2ccc3c(-c4nc5cc(C(=O)c6ccccc6)ccc5[nH]4)cccc32)CC1 [Example 20, (2-{1-[4-(1-Methyl-piperidin-4-yl)-butyl]-1H-indol-4-yl}-1H-benzoimidazol-5-yl)-phenyl-methanone]",619 nM
9,"CN1CCC(CCCCn2cc(Cl)c3c(-c4nc5cc(F)c(F)cc5[nH]4)cccc32)CC1 [Example 32, 2-{3-Chloro-1-[4-(1-methyl-piperidin-4-yl)-butyl]-1H-indol-4-yl}-5,6-difluoro-1H-benzoimidazole]",599 nM
10,"Cc1cc(C)c2nc(-c3ccc4c(c3)c(C)c(C)n4CCCC3CCN(C)CC3)[nH]c2c1 [Example 14, 2-{2,3-Dimethyl-1-[3-(1-methyl-piperidin-4-yl)-propyl]-1H-indol-5-yl}-4,6-dimethyl-1H-benzoimidazole]",84 nM
11,"CN1CCC(CCCCn2ccc3c(-c4nc5cc6c(cc5[nH]4)OCO6)cccc32)CC1 [Example 19, 6-{1-[4-(1-Methyl-piperidin-4-yl)-butyl]-1H-indol-4-yl}-5H-[1,3]dioxolo[4′,5′:4,5]benzo[1,2-d] imidazole]",404 nM
12,"Cc1c(F)ccc2[nH]c(-c3cc4ccn(CCCC5CCNCC5)c4cc3Cl)nc12 [Example 49, 2-[6-Chloro-1-(3-piperidin-4-yl-propyl)-1H-indol-5-yl]-5-fluoro-4-methyl-1H-benzoimidazole]",1730 nM
13,"Cc1c(F)ccc2[nH]c(-c3cccc4c3ccn4CCCCC3CCN(C)CC3)nc12 [Example 16, 5-Fluoro-4-methyl-2-{1-[4-(1-methyl-piperidin-4-yl)-butyl]-1H-indol-4-yl}-1H-benzoimidazole]",23 nM
14,"Cc1cccc2[nH]c(-c3ccc4ncn(CCCCC5CCN(C)CC5)c4c3)nc12 [Example 43, 4-Methyl-3′-[4-(1-methyl-piperidin-4-yl)-butyl]-1H,3′H-[2,5′]bibenzoimidazolyl]",1670 nM
15,"Cc1c(F)ccc2[nH]c(-c3ccc4c(c3F)CCN4CCCC3CCN(C)CC3)nc12 [Example 6, 5-Fluoro-2-{4-fluoro-1-[3-(1-methyl-piperidin-4-yl)-propyl]-2,3-dihydro-1H-indol-5-yl}-4-methyl-1H-benzoimidazole]",123 nM
16,"CN1CCC(CCCCn2ccc3c(-c4nc5cc(Cl)ccc5[nH]4)cccc32)CC1 [Example 68, 5-Chloro-2-{1-[4-(1-methyl-piperidin-4-yl)-butyl]-1H-indol-4-yl}-1H-benzoimidazole]",343 nM

# Results, then the compound that gave them:
row,Ki,Compound
1,7 nM,"Cc1nc(-c2ccc3c(ncn3CCCC3CCN(C)CC3)c2C)[nH]c1-c1ccc(C(F)(F)F)cc1 [Example 142, 4-Methyl-1-[3-(1-methyl-piperidin-4-yl)-propyl]-5-[4-methyl-5-(4-trifluoromethyl-phenyl)-1H-imidazol-2-yl]-1H-benzoimidazole]"
2,165 nM,"Cc1c(Cl)ccc2[nH]c(-c3ccc4c(ncn4CCCC4CCNCC4)c3C)nc12 [Example 113, 5-Chloro-4,4′-dimethyl-1′-(3-piperidin-4-yl-propyl)-1H,1′H-[2,5′]bibenzoimidazolyl]"
3,2000 nM,Cc1cc(Cl)cc2[nH]c(-c3ccc4ccn(CCCCC5CCNCC5)c4c3)nc12 [Example 108]
4,251 nM,"Cc1cc(F)cc2[nH]c(-c3ccc4c(ncn4CCCC4CCNCC4)c3C)nc12 [Example 112, 6-Fluoro-4,4′-dimethyl-1′-(3-piperidin-4-yl-propyl)-1H,1′H-[2,5′]bibenzoimidazolyl]"
5,600 nM,"Clc1ccc2[nH]c(-c3ccc4c(c3)CCN4CCCC3CCNCC3)nc2c1 [Example 94, 5-Chloro-2-[1-(3-piperidin-4-yl-propyl)-2,3-dihydro-1H-indol-5-yl]-1H-benzoimidazole]"
6,353 nM,CN1CCC(CCCn2ccc3cc(-c4nc5cc(C(C)(C)C)ccc5[nH]4)cnc32)CC1 [Example 92]
7,1000 nM,"CN1CCC(CCCCn2cc(Cl)c3c(-c4nc5c(F)c(F)ccc5[nH]4)cccc32)CC1 [Example 75, 2-{3-Chloro-1-[4-(1-methyl-piperidin-4-yl)-butyl]-1H-indol-4-yl}-4,5-difluoro-1H-benzoimidazole]"
8,102 nM,"CN1CCC(CCCCn2ccc3c(-c4nc5c(F)cc(F)cc5[nH]4)cccc32)CC1 [Example 70, 4,6-Difluoro-2-{1-[4-(1-methyl-piperidin-4-yl)-butyl]-1H-indol-4-yl}-1H-benzoimidazole]"
9,2000 nM,"Cc1c(C)n(CCCC2CCNCC2)c2ccc(-c3nc4c(C)c(F)ccc4[nH]3)cc12 [Example 90, 2-[2,3-Dimethyl-1-(3-piperidin-4-yl-propyl)-1H-indol-5-yl]-5-fluoro-4-methyl-1H-benzoimidazole]"
10,1940 nM,"c1cc(-c2nc3cc4c(cc3[nH]2)OCO4)c2ccn(CCCCC3CCNCC3)c2c1 [Example 76, 6-[1-(4-Piperidin-4-yl-butyl)-1H-indol-4-yl]-5H-[1,3]dioxolo[4′,5′:4,5]-benzo[1,2-d]imidazole]"
11,2640 nM,"Cc1cc(C)c2nc(-c3cccc4c3ccn4CCCCC3CCNCC3)[nH]c2c1 [Example 139, 4,6-Dimethyl-2-[1-(4-piperidin-4-yl-butyl)-1H-indol-4-yl]-1H-benzoimidazole]"
12,8 nM,"Cc1c(-c2nc(C(F)(F)F)c(-c3ccccc3)[nH]2)ccc2c1ncn2CCCC1CCN(C)CC1 [Example 84, 4-Methyl-1-[3-(1-methyl-piperidin-4-yl)-propyl]-5-(5-phenyl-4-trifluoromethyl-1H-imidazol-2-yl)-1H-benzoimidazole]"
13,205 nM,"Cc1c(F)ccc2[nH]c(-c3ccc4c(ncn4CCCC4CCNCC4)c3C)nc12 [Example 114, 5-Fluoro-4,4′-dimethyl-1′-(3-piperidin-4-yl-propyl)-1H,1′H-[2,5′]bibenzoimidazolyl]"
14,429 nM,"Cc1ccc2[nH]c(-c3ccc4c(ncn4CCCC4CCNCC4)c3C)nc2c1C [Example 138, 4,5,4′-Trimethyl-1′-(3-piperidin-4-yl-propyl)-1H,1′H-[2,5′]bibenzoimidazolyl]"
15,1670 nM,"Cc1ccc2[nH]c(-c3cccc4c3c(Cl)cn4CCCCC3CCN(C)CC3)nc2c1C [Example 74, 2-{3-Chloro-1-[4-(1-methyl-piperidin-4-yl)-butyl]-1H-indol-4-yl}-4,5-dimethyl-1H-benzoimidazole]"
16,2000 nM,"O=C(c1ccccc1)c1ccc2[nH]c(-c3cccc4c3c(Cl)cn4CCCCC3CCNCC3)nc2c1 [Example 129, {2-[3-Chloro-1-(4-piperidin-4-yl-butyl)-1H-indol-4-yl]-1H-benzoimidazol-5-yl}-phenyl-methanone]"
17,3330 nM,"Fc1ccc2[nH]c(-c3cccc4c3c(Cl)cn4CCCCC3CCNCC3)nc2c1F [Example 132, 2-[3-Chloro-1-(4-piperidin-4-yl-butyl)-1H-indol-4-yl]-4,5-difluoro-1H-benzoimidazole]"
18,2670 nM,"CC(C)(C)c1ccc2[nH]c(-c3ccc4ccn(CCCCC5CCNCC5)c4c3)nc2c1 [Example 109, 5-tert-Butyl-2-[1-(4-piperidin-4-yl-butyl)-1H-indol-6-yl]-1H-benzoimidazole]"
19,2330 nM,"Cc1cc(Cl)cc2[nH]c(-c3cccc4c3ccn4CCCCC3CCNCC3)nc12 [Example 104, 6-Chloro-4-methyl-2-[1-(4-piperidin-4-yl-butyl)-1H-indol-4-yl]-1H-benzoimidazole]"
